Measurements taken from patent US8530427B2, “Methods for modulating resistance to apoptosis using KLK6” (Mayo Foundation for Medical Education and Research, priority 2010, dated 2013).

How the values were obtained:
[1] = tested on: Oli Neu oligodendrocyte cell line; assay: Oli Neu oligodendrocyte cell death, PI flow cytometry; assay type: cell-based, murine; settings: 0.5 μM; 18 hour exposure
Description: KLK6 polypeptides promoted the survival of murine oligodendrocytes in a dose dependent fashion. […] Cell death was detected by PI labeling and quantitatively analyzed by flow cytometry.

[2] = tested on: U251 human glioblastoma cell line; assay: U251 glioblastoma cell death / apoptosis by flow cytometry; assay type: cell-based; settings: 1 μM
Protocol: The percent of cells labeled with propidium iodide (PI) after 24 hour exposure to staurosporine (1 μM) shown in histogram (FIG. 15A) was quantified by flow cytometry (FIG. 15B) and is taken as a measure of cell death. All samples were treated and analyzed in triplicate.
Levels of live (Annexin V− and Propidium iodide− (PI−)), early apoptotic (Annexin V+ and PI−), or dead (Annexin V+ and PI+) cells were determined by flow cytometry after a 24 hour period of exposure to 1 μM staurosporine (FIG. 16B) or staurosporine in the presence of 10 μg/mL KLK6 (FIG. 16C).
Dead cells were detected by labeling with 7-AAD. […] All expression data were normalized to the constitutively expressed gene GAPDH (*P<0.05, Students t-test).
KLK6 polypeptides promoted the survival of human glioma cells. […] Cell death was measured by flow cytometric detection of propidium iodide labeling.

murine splenocytes [3] = assay: Murine splenocyte/lymphocyte cell death, PI labeling by flow cytometry; assay type: cell-based; settings: resting conditions; 1 or 10 μg/mL at plating; 24 and 72 hours
Description: The effect of KLK6 polypeptides on immune cell survival was examined using whole splenocyte populations derived from C57BL6/J or PAR1 deficient mice or using the Jurkat T-leukemic cell line (clone E6-1, TIB-152 American Type Culture Collection). Eight to 12 week old C57 mice were obtained from Jackson Laboratories. Mice deficient in PAR1^-/- (B6.129S4-[…]^tm1Ajc/J) were also obtained from Jackson and backcrossed to C57BL6/J for 10 generations such that C57 mice served as wild type controls in each experiment. Spleens were homogenized in RPMI-1640, red blood cells lysed with ammonium chloride buffer, and splenocytes cultured in tissue culture treated 96 well plates at a density of 7.5×10^5 cells/mL. All experiments were performed in serum free X-Vivo media (Lonza, Mapleton, Ill.) containing 2 mM Glutamax, 1 mM sodium pyruvate, 50 U/mL penicillin-streptomycin, 10 mM HEPES, 50 μM 2-β-mercaptoethanol, and 10 μM non-essential amino acids (Invitrogen). Jurkat T cells were maintained in log-phase growth in the same defined media. The cells were maintained at 37° C. in 95% air and 5% CO2. […] Cells were analyzed by flow cytometry using a FACSCalibur flow cytometer (BD Biosciences, Mountain View, Calif.). […] FlowJo software (Ashland, Oreg.) was used to quantify different cell populations in flow cytometry experiments. […]

murine splenocytes [4] = assay: Splenocyte proliferation, CFSE labeling by flow cytometry; assay type: cell-based

| Molecule | cell death induced by staurosporine [1] | cell death induced by staurosporine [2] | cell death / cell survival (murine splenocytes [3]) | percent of divided cells (murine splenocytes [4]; 10 μg/mL, 24 hours post-stimulation) | proliferation (murine splenocytes [4]; lower concentrations, or 72 hours post-exposure) |
| --- | --- | --- | --- | --- | --- |
| CN[C@@H]1C[C@H]2O[C@@](C)([C@@H]1OC)n1c3ccccc3c3c4c(c5c6ccccc6n2c5c31)C(=O)NC4 [staurosporine] | shown to promote death of the Oli Neu oligodendrocyte cell line | induced a considerable increase in cell death |  |  |  |
| KLK1 polypeptides: recombinant kallikrein family member KLK1, produced in an identical fashion to KLK6 |  |  | did not significantly impact cell survival | significant increase in the percent of divided cells | Significant differences in proliferation were not seen |
